Assay results: PubChem BioAssay (NCI)
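Five concentrations, 48 hours, 96-well plates. TGI: total growth inhibition.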

Tests used:
Assay in all cases: growth of human tumour cells (NCI), 48 h
ACHN renal = test system: ACHN renal
DU-145 prostate = test system: DU-145 prostate
HOP-62 NSCLC = test system: HOP-62 NSCLC
HOP-92 NSCLC = test system: HOP-92 NSCLC
NCI-H23 lung = test system: NCI-H23 lung
OVCAR-4 ovarian = test system: OVCAR-4 ovarian
SK-MEL-5 melanoma = test system: SK-MEL-5 melanoma
SK-OV-3 ovarian = test system: SK-OV-3 ovarian
SNB-19 CNS = test system: SNB-19 CNS
UACC-62 melanoma = test system: UACC-62 melanoma

Structure (SMILES) | TGI (ACHN renal) [µM] | TGI (DU-145 prostate) [µM] | TGI (HOP-62 NSCLC) [µM] | TGI (HOP-92 NSCLC) [µM] | TGI (NCI-H23 lung) [µM] | TGI (OVCAR-4 ovarian) [µM] | TGI (SK-MEL-5 melanoma) [µM] | TGI (SK-OV-3 ovarian) [µM] | TGI (SNB-19 CNS) [µM] | TGI (UACC-62 melanoma) [µM]
COC(=O)C1=Nc2c(C)nn(-c3ccccc3)c2N=C(c2ccc([N+](=O)[O-])cc2)C1 | > 10 | > 10 | > 10 | > 10 | > 10 | > 10 | > 10 | > 10 | > 10 | > 10
O=C(Cc1ccccc1)NN1C(=O)/C(=C\c2ccc([N+](=O)[O-])cc2)SC1=Nc1ccccc1 | > 100 | > 100 | > 100 | > 100 | > 100 | > 100 | > 100 | > 100 | > 100 | > 100
O=c1c2ccccc2nc(Nc2cccc(Cl)c2)n1/N=C/C=C/c1ccccc1 | > 100 | > 100 | > 100 | > 100 | > 100 | > 100 | > 100 | > 100 | > 100 | > 100
N#Cc1cc2c(cc1Cl)Sc1nccn1S2(=O)=O | 4.64 | 6.18 | 10.8 | 15.3 | 3.35 | 22.1 | 22.6 | 18.1 | 24.6 | 7.32
CN(C)CCn1c(=O)c2ccc(NCCCN(C)CCCNc3ccc4c(=O)n(CCN(C)C)c(=O)n5c6ccc([N+](=O)[O-])cc6c(=O)c3c45)c3c(=O)c4cc([N+](=O)[O-])ccc4n(c1=O)c23 | 1.21 | 0.39 | 0.842 | 0.198 | 0.171 | 0.0944 | 0.311 | 0.886 | 0.193 | 0.318
CCOn1c(C2(CC3CCN(C(=O)c4ccccc4)CC3)OCCO2)cc2ccccc21 | 27.9 | 31.9 | 28.3 | 23.5 | 40.6 | 29.9 | 24.6 | 45.3 | 30.9 | 23.4
CCOC(=O)C(NC(=O)CC(C)C)(N1CCN(c2cc3c(cc2F)c(=O)c(C(=O)O)cn3C2CC2)CC1)C(F)(F)F (stereo not given) | 34.6 | > 100 | > 100 | 25.3 | 33.5 | 68 | 25.4 | 65.8 | > 100 | 30.2
C=c1c(OC)c(OC)c(O)c2c1=c1cc([N+](=O)[O-])cc(OC)c1=N2 | > 100 | > 100 | > 100 | > 100 | > 100 | > 100 | > 100 | > 100 | > 100 | > 100
CNC(=O)N(CCC#N)[C@H]1CCCC[C@@H]1N(C(=O)NC)c1ccccc1 | > 100 | > 100 | > 100 | > 100 | > 100 | > 100 | > 100 | > 100 | > 100 | > 100
NC(=O)C(=CNC(=S)c1ccncc1)C(N)=O | > 100 | > 100 | > 100 | > 100 | > 100 | > 100 | > 100 | > 100 | > 100 | > 100
CC1(CNCc2ccccc2)CC(CCc2ccccc2)N(C(=O)c2ccc([N+](=O)[O-])cc2)C1Cc1ccc(O)cc1 (stereo not given) | 24.8 | 28.5 | 31.1 | 9.88 | 23.5 | 28.2 | 17.3 | 34.6 | 29.1 | 28.9
CCNC(=O)C1CCCN1C(=O)C(CCCN=C(N)N)NC(=O)C(CC(C)C)NC(=O)C(Cc1c[nH]c2ccccc12)NC(=O)C(Cc1ccc(O)cc1)NC(=O)C(CO)NC(=O)C(Cc1c[nH]c2ccccc12)NC(=O)C(Cc1cnc[nH]1)NC(=O)C1CCC(=O)N1 (stereo not given) | > 100 | > 100 | > 100 | > 100 | > 100 | > 100 | > 100 | > 100 | > 100 | > 100
COc1cc(I)c2c3c1OC1C34CCN(C)C(C2)C4=CC(I)C1(OC)OC (stereo not given) | 98.3 | 47.5 | 46.3 | 45.6 | 54.7 | 55.9 | 34 | 68 | 71.9 | 42
COCc1nc2c(OC)cc(-c3nc4ccc(N5CCN(C)CC5)cc4[nH]3)c(OC)c2[nH]1 | > 100 | > 100 | > 100 | > 100 | > 100 | > 100 | 53.2 | > 100 | > 100 | > 100
Brc1ccc2c(-c3csc(-c4c[nH]c5cc(Br)ccc45)n3)c[nH]c2c1 | > 100 | 47.3 | > 100 | > 100 | 53.2 | 97.7 | > 100 | 97.4 | 58.2 | > 100
CC(=O)OC/C=C(/C=C/CNC1CCCCC1)OC(C)=O | 30.1 | 31.6 | 31.1 | 25.5 | 29.9 | 35.7 | 33.5 | 33.8 | 49.9 | 33.2
CCCCc1ccc(Nc2nc3c(ncn3COCCO)c(=O)[nH]2)cc1 | > 100 | > 100 | > 100 | > 100 | > 100 | > 100 | > 100 | > 100 | > 100 | > 100
O=C(Nc1ccccc1C(=O)NCCCO)/C(=C/c1ccccc1O)NC(=O)c1ccccc1 | 97.4 | > 100 | > 56.5 | > 100 | > 94.5 | > 100 | > 100 | > 100 | 40.8 | 60

Structure (SMILES) | TGI (ACHN renal) [µM] | TGI (DU-145 prostate) [µM] | TGI (HOP-62 NSCLC) [µM] | TGI (HOP-92 NSCLC) [µM] | TGI (NCI-H23 lung) [µM] | TGI (OVCAR-4 ovarian) [µM] | TGI (SK-MEL-5 melanoma) [µM] | TGI (SK-OV-3 ovarian) [µM] | TGI (SNB-19 CNS) [µM] | TGI (UACC-62 melanoma) [µM]
Brc1cc2nn(-c3ccccc3)nc2c2nonc12 | > 100 | > 100 | > 100 | > 100 | > 100 | > 100 | > 100 | > 100 | > 100 | > 100
Brc1cccc(N=NN2CCCC2)c1 | > 100 | > 100 | > 100 | > 100 | > 100 | > 100 | > 100 | > 100 | > 100 | > 100
Clc1ccc(OCc2nnc(CCCCCCCCc3nnc(COc4ccc(Cl)cc4)n3Nc3ccccc3)n2Nc2ccccc2)cc1 | > 93 | > 80.9 | > 100 | 77 | > 100 | > 100 | 2.72 | > 100 | > 100 | 38.8
Cn1c([O-])nc(-n2cc[n+](C)c2)cc1=O | > 100 | > 100 | > 100 | > 100 | > 100 | > 100 | > 100 | > 100 | > 100 | > 100
CCC(=O)Oc1c2ccsc2c(OC(=O)CC)c2ccsc12 | 5.49 | 0.679 | 2.95 | 3.98 | 0.364 | 2.39 | 0.216 | 15.8 | 1.58 | 0.439
Cc1cc2ncc3c(=O)n(NS(=O)(=O)c4ccc(N)cc4)ccc3n2n1 | > 100 | > 100 | > 100 | > 100 | > 100 | > 100 | > 100 | > 100 | > 100 | > 100
Brc1ccc2c(-c3csc(-c4c[nH]c5ccc(Br)cc45)n3)c[nH]c2c1 | 11.1 | 15.5 | 27.1 | 9.27 | 14.2 | 23.9 | 12.8 | 24.2 | 14.7 | 9.2
NC(N)=NS(=O)(=O)c1ccc(NC(=O)c2ccc3nc4ccccc4c(Nc4ccc(S(=O)(=O)N=C(N)N)cc4)c3c2)cc1 | > 100 | > 100 | > 100 | > 100 | > 100 | > 100 | > 100 | > 100 | > 100 | > 100
c1ccc2c3c(c(N4CCOCC4)nc2c1)CCCC3 | > 100 | > 100 | > 100 | > 100 | > 100 | > 100 | 54.7 | > 100 | > 100 | > 100
O=C1C=CC(=O)c2c(O)c(NCCc3ccc(O)cc3)c(Cl)c(O)c21 | > 10 | > 10 | > 10 | > 10 | > 10 | > 10 | > 10 | > 10 | > 10 | > 10
CN(C)S(=O)(=O)Nc1nnc(S(N)(=O)=O)s1 | > 100 | > 100 | > 100 | > 100 | > 100 | > 100 | > 100 | > 100 | > 100 | > 100
Nc1ccc(S(=O)(=O)Nc2nc3ccccc3nc2N2CCCCC2)cc1 | > 100 | > 100 | > 100 | > 100 | > 100 | 87.7 | > 100 | > 100 | > 100 | > 100
COc1cc(CN2CCCCC2)cc2cc(C(=O)O)c(=O)oc12 | > 100 | > 100 | > 100 | > 100 | > 100 | > 100 | > 100 | > 100 | > 100 | > 100
CC(C)(C)c1cc(/C=C(\C#N)C(=O)NCCO)cc(C(C)(C)C)c1O | 76.5 | > 100 | 49.6 | > 100 | 89.7 | 76.5 | 28.1 | 60.2 | > 100 | 27.5
CC1(C)C=C(S(=O)(=O)c2ccccc2)Oc2ccccc2O1 | > 100 | > 100 | > 100 | 67.5 | > 100 | > 100 | 28.9 | > 100 | > 100 | > 100
C=C1C(=O)O[C@@]23C1CC[C@@H](C)C2CC[C@@]1(C)OC31 (stereo not given in full) | 27.1 | 35.5 | 39.3 | 24.2 | 20.6 | 25.3 | 12.3 | 47.6 | 47.4 | 27.1
O=C1CSC(c2cccs2)N1c1nc2cc3sc(N4C(=O)CSC4c4cccs4)nc3cc2s1 (stereo not given) | > 50 | > 50 | > 50 | > 50 | > 50 | > 50 | > 50 | > 50 | > 50 | > 50
